{
  "source": "patent US11247970B2",
  "about": "“Selective inhibition of gluconeogenic activity” (Dana-Farber Cancer Institute, Inc., priority 2017, dated 2022)",
  "key": {"primary hepatocytes": {"tested_on": "primary hepatocytes", "test": "Glucose production by primary hepatocytes (glucagon or Ad-PGC-1α)", "type": "cell-based, mouse", "parameters": "glucagon- and PGC-1α-mediated glucose production: dose or concentration left out as unconfirmed", "experimental": "For measurement of acetylation, gene expression and glucose production SR-18292 ([…]) was added to cells overnight and fresh compound was added the following day for additional 3 h before collecting the cells (for total of ˜18 h treatment). Where insulin and glucagon stimulation were performed, the medium was changed to starvation medium (DMEM, 0.2% BSA, 2 mM sodium pyruvate, and 1% penicillin/streptomycin) with fresh compound for the last 3 h and cells were stimulated with either 100 nM insulin or 200 nM glucagon for an extra 1.5 h. For glucose measurements following PGC-1α over expression cells were incubated for the last 3 h in glucose-free medium (phenol-red/glucose free DMEM, 0.2% BSA, 2 mM sodium pyruvate and 20 mM sodium lactate or 10 mM glycerol in case glycerol was used as substrate). For glucose measurements following glucagon stimulation cells were incubated for the last 4 h in the same glucose-free medium that also contained glucagon (200 nM). The glucose level in the medium was measured using a glucose assay kit from Eton Bioscience Inc. by adding […] of assay buffer to […] of medium followed by 15 min incubation at 37° C. Absorbance was measured at 490 nm.\nPGC-1α activates hepatic gluconeogenic gene expression, and an increase in its acetylation status reduces expression of both Pck1 and G6pc genes (Rodgers et al., 2005; Yoon et al., 2001). […] Thus, a high-throughput screen with these 252 compounds at different doses was performed. Briefly, Hepatocytes were treated with forskolin for 1.5 hours to induce the expression of both Pck1 and G6pc genes, which mimics the fasting and PGC-1α-mediated gluconeogenic response. The dose response curves were used to calculate an inhibitory activity of the compounds by determining the difference in Ct values between compound treatment and forskolin control at each dose, and provided an estimated potency of the compounds in suppressing Pck1 and G6pc (FIGS. 4, 34). […] To specifically test the inhibitory activity of the remaining small molecule positive hits on PGC-1α-mediated glucose production, adenoviruses to ectopically express PGC-1α in primary hepatocytes were used. Similar to forskolin, PGC-1α overexpression induces gluconeogenic gene expression and promotes glucose release. Primary hepatocytes were treated with the chosen positive hit compounds that could suppress gluconeogenic gene expression, and the concentration of glucose released to the culture medium was measured."}, "[1]": {"tested_on": "Pck1 gene expression in liver", "test": "qPCR of gluconeogenic genes in liver of treated mice", "type": "in vivo", "conditions": "livers from fasted treated mice", "experimental": "All mice were purchased from Jackson laboratories and housed under a 12 h light/12 h dark cycle at 22° C. Before handling, mice were allowed to acclimate for at least 1 week in our animal facility. For in vivo studies with DIO mice, males 6-8 weeks old were fed HFD for the indicated time. For drug administration, SR-18292 was re-suspended in a 10% DMSO/10% Tween80/80% PBS solution at a final concentration of 6-12 mg/ml. Metformin was re-suspended in the same solution at a 20 mg/ml concentration. SR-18292 was injected via I.P. for 3 days between 4-5 pm and food was removed on day 3 at 5 pm. […] Metformin was administered via oral gavage. […] Insulin tolerance test was performed following the same dosing protocol, but mice were fasted for 4 hours after the forth injection before performing the test. Insulin was injected via I.P. (0.5 U/Kg) and blood glucose was measured every 20 minutes. Glycemia was measured by tail bleed using a glucometer (OneTouch). […] Total RNA was extracted from cells or pulverized liver using TRIzol reagent (Ambion, Life Technologies), followed by cDNA preparation from 2 μg of total RNA with a High-Capacity cDNA Reverse Transcription Kit (Applied Biosystems). cDNA products were quantified by real-time PCR using Power SYBR Green PCR Master Mix (Applied Biosystems) on a CFX384 Real-Time PCR System (Bio-Rad). […]"}, "[2]": {"test": "Fasting insulin and liver pAkt in treated mice", "type": "in vivo", "experimental": "Serum samples were gathered from blood collected by cardiac puncture. Insulin was measured with Ultra Sensitive Mouse Insulin ELISA Kit (Crystal Chem, 90080). Kits used to measure alanine transaminase (EALT-100), aspartate transaminase (EASTR-100), lactate dehydrogenase (DLDH-100) were purchased from Bioassay Systems. Kits used to measure lactate (MAK 064), b-hydroxybutyrate (MAK 041), Triglycerides (TR0100) were purchased from Sigma. Kit used to measure cholesterol (C7510) was purchased from Pointe Scientific. Kit used to measure non-esterified fatty acids was purchased from Wako."}, "[3]": {"tested_on": "DIO mice and Lep^ob/ob mice", "test": "Glucose tolerance test (GTT)", "type": "in vivo", "experimental": "All mice were purchased from Jackson laboratories and housed under a 12 h light/12 h dark cycle at 22° C. Before handling, mice were allowed to acclimate for at least 1 week in our animal facility. For in vivo studies with DIO mice, males 6-8 weeks old were fed HFD for the indicated time. For drug administration, SR-18292 was re-suspended in a 10% DMSO/10% Tween80/80% PBS solution at a final concentration of 6-12 mg/ml. Metformin was re-suspended in the same solution at a 20 mg/ml concentration. SR-18292 was injected via I.P. for 3 days between 4-5 pm and food was removed on day 3 at 5 pm. […] Metformin was administered via oral gavage. […] Insulin tolerance test was performed following the same dosing protocol, but mice were fasted for 4 hours after the forth injection before performing the test. Insulin was injected via I.P. (0.5 U/Kg) and blood glucose was measured every 20 minutes. Glycemia was measured by tail bleed using a glucometer (OneTouch). For all experiments, age- and body weight-matched animals were used. For protein, RNA extracts and biochemistry studies, livers were removed following each experiment and snap frozen in liquid nitrogen. For information on number of animals in each experiment please refer to FIGS. 4, 5 and S5 legends. All studies were performed according to protocols approved by Beth Israel Deaconess Medical Center's Animal Care and Use Committee."}},
  "data": [
    {"smiles": "Cc1ccc(CN(CC(O)COc2cccc3[nH]ccc23)C(C)(C)C)cc1", "note": "(stereo not drawn) [SR-18292, 1-((1H-indol-4-yl)oxy)-3-(tert-butyl(4-methylbenzyl)amino)propan-2-ol]", "values": [
      {"measurement": "glucose release after short treatment", "setting": "primary hepatocytes; 3 hr treatment", "value": "no effect"},
      {"measurement": "glucose production from pyruvate and lactate or from glycerol as substrate", "setting": "primary hepatocytes; Ad-PGC-1α hepatocytes", "value": "decreases glucose production"},
      {"measurement": "glucagon- and PGC-1α-mediated glucose production", "setting": "primary hepatocytes; isolated hepatocytes", "value": "significantly reduced"},
      {"measurement": "gluconeogenic gene expression (Pck1) in liver", "setting": "[1]", "value": "inhibited"},
      {"measurement": "basal (fasting) blood insulin levels", "setting": "[2]; HFD 13 weeks", "value": "not significantly changed"},
      {"measurement": "phosphorylation of Akt in liver", "setting": "[2]; fasted mice", "value": "not changed"},
      {"measurement": "glucose tolerance", "setting": "[3]; DIO mice", "value": "significantly enhanced glucose tolerance"},
      {"measurement": "glucose tolerance", "setting": "[3]; Lep^ob/ob mice", "value": "significantly enhanced glucose tolerance"},
      {"measurement": "insulin levels after GTT", "setting": "[3]; mouse, in vivo", "value": "lower"}
    ]}
  ]
}
